Patent US20170056336A1, “CO-TARGETING ANDROGEN RECEPTOR SPLICE VARIANTS AND MTOR SIGNALING PATHWAY FOR THE TREATMENT OF CASTRATION-RESISTANT PROSTATE CANCER” (British Columbia Cancer Agency Branch, priority 2015, published 2017)

How the values were obtained:
[1] = test system: LNCaP95 xenografts; assay: Western blot analyses of protein lysates from xenografts; type: in vivo, mice
[2] = test system: LNCaP95 xenografts; assay: Immunohistochemistry of harvested xenografts; type: in vivo, mice; conditions: immunohistochemistry
[3] = target: EGFR/Erb1 (Homo sapiens, UniProt P00533); conditions: higher concentrations; read-out: concentration inhibiting EGFR/Erb1; cited from earlier work
[4] = test system: LNCaP95 cells; assay: Titration of BEZ-235 for cytotoxicity in LNCaP95 cells; type: cell-based, human
[5] = test system: mTOR and AR pathways in LNCaP95 cells; assay: Western blot analysis of mTOR and AR pathways in LNCaP95 cells; type: cell-based, human; conditions: LNCaP95 cells
Description: Cells were harvested and whole-cell lysate (10 to 15 ug) was subjected to SDS-PAGE. Antibodies used were: AR (1:1000; Santa Cruz), AR-V7 (1:400; Precision), p110α (1:500; BD Bioscience), p110β (1:1000; abcam), […] (1:1000; abcam), p110δ (1:1000; abcam), UBE2C (Boston Biochem; 1:1000), PTEN (1:1000), pS6 (1:2000), pAktThr308 (1:1000), pAktSer473 (1:2000), p4EBP1 (1:1000), total-Akt (1:1000), total-S6 (1:1000), total-4EBP1 (1:1000), pERK/MAPK (1:1000), total-ERK/MAPK (1:1000) from Cell Signaling technology (Danvers, Mass.). β-actin (1:10,000, Abcam) was used as a loading control.
Protein levels of PSA were undetectable in LNCaP95 cells.

[6] = test system: mTOR and AR pathways in parental LNCaP cells; assay: Western blot analysis of mTOR and AR pathways in parental LNCaP cells; type: cell-based, human; conditions: BEZ-235 15 nM
[7] = target: T1, AR NTD (Homo sapiens, UniProt P10275); assay: AR NTD transactivation assay in LNCaP95 cells; type: cell-based; conditions: 24 h
T1 sequence (P10275 1-558): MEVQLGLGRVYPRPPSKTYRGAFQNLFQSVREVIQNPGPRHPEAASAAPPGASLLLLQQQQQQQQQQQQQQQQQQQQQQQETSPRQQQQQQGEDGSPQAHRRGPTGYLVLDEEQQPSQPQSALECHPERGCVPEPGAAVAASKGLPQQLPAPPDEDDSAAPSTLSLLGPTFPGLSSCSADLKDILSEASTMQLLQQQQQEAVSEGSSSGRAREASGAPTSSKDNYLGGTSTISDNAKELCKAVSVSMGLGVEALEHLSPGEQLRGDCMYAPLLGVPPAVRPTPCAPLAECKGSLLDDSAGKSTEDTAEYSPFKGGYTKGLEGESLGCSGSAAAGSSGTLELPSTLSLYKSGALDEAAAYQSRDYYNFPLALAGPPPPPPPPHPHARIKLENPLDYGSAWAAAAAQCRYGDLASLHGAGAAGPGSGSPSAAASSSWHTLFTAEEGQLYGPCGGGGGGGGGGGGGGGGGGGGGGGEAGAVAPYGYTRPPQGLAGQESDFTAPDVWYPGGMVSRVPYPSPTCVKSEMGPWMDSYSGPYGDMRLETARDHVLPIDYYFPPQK
Description: (§1) Transactivation assays of the AR NTD were performed in LNCaP and LNCaP95 cells cotransfected with p5xGal4UAS-TATA-luciferase and AR NTD-Gal4DBD (FIG. 2D). […] LNCaP95 cells were harvested 24 h after the treatment of indicated compounds.
(§2) The AR NTD is essential for full transcriptional activities (Quayle, S. N. et. al., PNAS 2007, 104, 1331-1336). In LNCaP cells, transactivation of the AR NTD can be induced with IL-6 or by stimulation of the PKA pathway with FSK. In LNCaP95 cells, there is high intrinsic activity of the AR NTD which cannot be further induced by stimulation of these pathways.

[8] = target: T1, AR NTD; assay: AR NTD transactivation assay in LNCaP cells; type: cell-based; conditions: 24 h
Description: as §1, §2

[9] = harvested tumors, Compound A 100 mg/kg, BEZ-235 5 mg/kg
[10] = xenografts harvested 1 h after last treatment, BEZ-235 5 mg/kg
[11] = absence of androgen, BEZ-235 15 nM
[12] = BEZ-235 orally daily at 5 mg/kg body weight

Chain of EGFR/Erb1 (P00533 25-1210): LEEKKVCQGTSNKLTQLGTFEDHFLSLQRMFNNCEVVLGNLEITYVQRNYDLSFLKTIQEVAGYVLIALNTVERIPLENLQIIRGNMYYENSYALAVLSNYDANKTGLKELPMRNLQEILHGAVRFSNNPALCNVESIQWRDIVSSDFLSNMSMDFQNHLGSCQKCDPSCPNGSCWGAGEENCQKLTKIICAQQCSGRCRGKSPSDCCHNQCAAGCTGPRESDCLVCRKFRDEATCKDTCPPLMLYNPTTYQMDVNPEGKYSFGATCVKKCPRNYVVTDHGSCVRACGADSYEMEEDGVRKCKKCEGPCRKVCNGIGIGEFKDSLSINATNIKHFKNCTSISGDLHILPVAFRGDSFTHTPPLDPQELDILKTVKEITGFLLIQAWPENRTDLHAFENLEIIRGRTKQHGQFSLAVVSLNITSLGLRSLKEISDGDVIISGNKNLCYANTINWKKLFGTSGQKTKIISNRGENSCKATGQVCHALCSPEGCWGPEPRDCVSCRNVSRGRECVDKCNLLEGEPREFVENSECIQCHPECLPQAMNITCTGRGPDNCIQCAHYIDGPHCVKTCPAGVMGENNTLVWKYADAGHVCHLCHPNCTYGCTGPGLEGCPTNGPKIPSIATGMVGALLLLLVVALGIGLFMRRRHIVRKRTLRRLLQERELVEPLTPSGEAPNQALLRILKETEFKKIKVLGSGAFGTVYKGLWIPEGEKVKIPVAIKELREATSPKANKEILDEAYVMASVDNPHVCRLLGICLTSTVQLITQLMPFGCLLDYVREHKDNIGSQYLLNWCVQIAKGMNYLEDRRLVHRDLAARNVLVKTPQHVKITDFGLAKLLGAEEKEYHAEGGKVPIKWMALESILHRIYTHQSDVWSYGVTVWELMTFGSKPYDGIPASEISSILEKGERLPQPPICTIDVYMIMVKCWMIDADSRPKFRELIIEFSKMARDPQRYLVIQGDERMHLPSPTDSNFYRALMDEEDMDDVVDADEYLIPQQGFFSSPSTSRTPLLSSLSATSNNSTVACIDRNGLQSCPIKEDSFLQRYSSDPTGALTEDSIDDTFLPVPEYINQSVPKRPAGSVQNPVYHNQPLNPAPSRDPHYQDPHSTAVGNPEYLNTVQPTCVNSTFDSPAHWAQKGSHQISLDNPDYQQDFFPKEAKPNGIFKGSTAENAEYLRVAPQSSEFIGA

With `Cn1c(=O)n(-c2ccc(C(C)(C)C#N)cc2)c2c3cc(-c4cnc5ccccc5c4)ccc3ncc21` [BEZ-235, 2-methyl-2-[4-(3-methyl-2-oxo-8-quinolin-3-ylimidazo[4,5-c]quinolin-1-yl)phenyl]propanenitrile] the “levels of p4EBP1” value ([1]; harvested tumors, normalized to total 4EBP1) was “no significant change”, the “levels of pAkt” value ([1]; harvested tumors, normalized to total Akt) was “no significant change” and the “protein levels of UBE2C” value [1, 9] was “reduced”. The “protein levels of pS6” value [1, 9] was “reduced”, the “protein levels of FKBP5” value ([1]; in vivo, monotherapies) was “reduced” and the “protein levels of AR-V7” value [1, 10] was “reduced”. The “protein levels of FL-AR” value [1, 10] was “reduced”, the UBE2C staining [2] was “reduced” and the pS6 staining [2] was “reduced”. For the same compound, the IC50 [3] was > 8.5 µM, the cytotoxicity ([4]; 500 nM BEZ-235) was “enormous cytotoxicity” and the non-toxic concentration ([4]; titration experiments) was 15 nM. The pAkt ([5]; 500 nM BEZ-235) was “inhibited”, the “levels of UBE2C” value ([5]; 48 h) was “decreased” and the pAkt ([5]; BEZ-235 15 nM, everolimus) was “did not impact”. For the same compound, the “levels of AR-V7” value [5, 11] was “increased”, the “levels of FL-AR” value [5, 11] was “increased” and the “protein levels of FL-AR” value ([5]; titration experiments) was “increased”. The pS6 ribosomal protein ([5]; titration, BEZ-235 15 nM, everolimus 10 nM) was “inhibited”, the pAkt ([6]; LNCaP cells) was “no effect” and the “levels of FL-AR” value ([6]; parental LNCaP cells, absence of androgen) was “increased”. The PSA protein ([6]; parental LNCaP cells, regardless of androgen status) was “increased”, the “mortality of the animals” value (BEZ-235 45 mg/kg body weight) was 66% and the mTOR in tumors [12] was “sufficient to block”. The pAkt in tumors [12] was “not”, the toxicity [12] was “non-toxic” and the “intrinsic activity of AR NTD” value [7] was “no effect”. For the same compound, the “AR-NTD transactivation induced by FSK” value ([8]; FSK 50 uM) was “no effect” and the “AR-NTD transactivation induced by IL-6” value ([8]; IL-6 50 ng/ml) was “significantly inhibited”.
